The results in this text go back to patent publication US20250289787A1, “HERBICIDAL 2-OXO-NICOTINIC ACID DERIVATIVES” (SYNGENTA CROP PROTECTION AG, priority 2022, published 2025).

Holding throughout (type): in vivo
What all share (set-up): key: 5=81-100%; 4=61-80%; 3=41-60%; 2=21-40%; 1=1-20%; 0=no damage to the plant; -=not tested

Assay [1] has as its system Amaranthus palmeri (AMAPA). Description: Post-emergence test, herbicidal damage. The note with it: sprayed after 8 days cultivation, 1000 g/ha unless otherwise stated, evaluated after 13 days, five-point scale. The protocol:
(§1) Seeds of a variety of test species are sown in standard soil in pots Amaranthus palmeri (AMAPA), (Amaranthus retoflexus (AMARE), Echinochloa crus-galli (ECHCG), Zea mays (ZEAMX), Ipomoea 5 hederacea (IPOHE), and Setaria faberi (SETFA). After 8 days cultivation under controlled conditions in a glasshouse (at 24° C./16° C., day/night; 14 hours light; 65% humidity), the plants are sprayed with an aqueous spray solution derived from the formulation of the technical active ingredient in acetone/water (50:50) solution containing 0.5% Tween 20 (polyoxyethelyene sorbitan monolaurate, CAS RN 9005-64-5). Compounds are applied at 1000 g/ha unless otherwise stated. The test plants are then grown in a glasshouse under controlled conditions in a glasshouse (at 24° C./16° C., day/night; 14 hours light; 65% humidity) and watered twice daily. After 13 days the test is evaluated for the percentage damage caused to the plant. The biological activities are shown in the following table on a five-point scale (5=81-100%; 4=61-80%; 3=41-60%; 2=21-40%; 1=1-20%; 0=no damage to the plant; -=not tested).

The test system of assay [2] is Ipomoea hederacea (IPOHE). Description: Post-emergence test, herbicidal damage. The note with it: sprayed after 8 days cultivation, 1000 g/ha unless otherwise stated, evaluated after 13 days, five-point scale. The protocol:
as §1

Assay [3] has as its system Amaranthus retoflexus (AMARE). In words: Post-emergence test, herbicidal damage. The note with it: sprayed after 8 days cultivation, 1000 g/ha unless otherwise stated, evaluated after 13 days, five-point scale. The protocol: as §1
Assay [4] relates to Echinochloa crus-galli (ECHCG). Description: Post-emergence test, herbicidal damage. The note with it: sprayed after 8 days cultivation, 1000 g/ha unless otherwise stated, evaluated after 13 days, five-point scale. Here is the method: as §1
Assay [5] concerns Zea mays (ZEAMX). In words: Post-emergence test, herbicidal damage. Conditions: sprayed after 8 days cultivation, 1000 g/ha unless otherwise stated, evaluated after 13 days, five-point scale. Here is the method:
as §1

The subject of assay [6] is Setaria faberi (SETFA). In words: Post-emergence test, herbicidal damage. Conditions: sprayed after 8 days cultivation, 1000 g/ha unless otherwise stated, evaluated after 13 days, five-point scale. The protocol: as §1
The test system of assay [7] is Zea mays (ZEAMX). Description: Pre-emergence test, herbicidal damage. The note with it: 1000 g/ha unless otherwise stated, evaluated after 13 days, five-point scale.
Assay [8] concerns Setaria faberi (SETFA). In words: Pre-emergence test, herbicidal damage. The note with it: 1000 g/ha unless otherwise stated, evaluated after 13 days, five-point scale.
Assay [9] has as its system Ipomoea hederacea (IPOHE). Description: Pre-emergence test, herbicidal damage. The note with it: 1000 g/ha unless otherwise stated, evaluated after 13 days, five-point scale.
The test system of assay [10] is Amaranthus palmeri (AMAPA). Description: Pre-emergence test, herbicidal damage. Conditions: 1000 g/ha unless otherwise stated, evaluated after 13 days, five-point scale.
The test system of assay [11] is Amaranthus retoflexus (AMARE). In words: Pre-emergence test, herbicidal damage. The note with it: 1000 g/ha unless otherwise stated, evaluated after 13 days, five-point scale.
Assay [12] deals with Echinochloa crus-galli (ECHCG). In words: Pre-emergence test, herbicidal damage. Conditions: 1000 g/ha unless otherwise stated, evaluated after 13 days, five-point scale.

With `Cc1c(Cl)c(-c2ccc(Cl)c(Cl)c2)c(C(=O)O)c(=O)n1Cc1ccc(F)cc1F` [Compound 34, 5-chloro-4-(3,4-dichlorophenyl)-1-[(2,4-difluorophenyl)methyl]-6-methyl-2-oxo-pyridine-3-carboxylic acid], the “percentage damage caused to the plant, AMAPA” value in assay [1] and in assay [10] was 4 (4=61-80%) each time. In addition, the “percentage damage caused to the plant, IPOHE” value in [2] is 1 (1=1-20%); in assay [9] it was 0. For the same molecule, the “percentage damage caused to the plant, AMARE” value in assay [3] and in assay [11] was 3 (3=41-60%) throughout. Moreover, the “percentage damage caused to the plant, ECHCG” value in assay [4] and in [12] was 1 (1=1-20%) each time. Besides, the “percentage damage caused to the plant, ZEAMX” value in [5] and in assay [7] was 0 in each case. For the same molecule, the “percentage damage caused to the plant, SEFTA” value in assay [6] was 0; in [8] it was 1 (1=1-20%).

For `Cc1cc(-c2ccc(Cl)c(Cl)c2)c(C(=O)O)c(=O)n1-c1ncc(Cl)cc1Cl` [Compound 19, 4-(3,4-dichlorophenyl)-1-(3,5-dichloro-2-pyridyl)-6-methyl-2-oxo-pyridine-3-carboxylic acid], the figures for the “percentage damage caused to the plant, AMAPA” value in assay [1] and in [10] were 1 (1=1-20%) and 0, respectively. Also, the figures for the “percentage damage caused to the plant, IPOHE” value in assay [2] and in [9] were 1 (1=1-20%) and 0, respectively. Besides, the “percentage damage caused to the plant, AMARE” value in assay [3] and in [11] was 0 throughout. Also, the “percentage damage caused to the plant, ECHCG” value was 1 (1=1-20%) in assay [4] and 0 in assay [12]. The results for the “percentage damage caused to the plant, ZEAMX” value in [5] and in assay [7] were 1 (1=1-20%) and 0, respectively. Besides, the “percentage damage caused to the plant, SEFTA” value in assay [6] is given as 1 (1=1-20%); in [8], 0.

Turning to `C=Cc1c(-c2ccc(Cl)c(Cl)c2)c(C(=O)O)c(=O)n(-c2ccc(F)cc2F)c1C` [Compound 38, 4-(3,4-dichlorophenyl)-1-(2,4-difluorophenyl)-6-methyl-2-oxo-5-vinyl-pyridine-3-carboxylic acid], the “percentage damage caused to the plant, AMAPA” value in [1] and in assay [10] was 1 (1=1-20%) each time. The “percentage damage caused to the plant, IPOHE” value in [2] is recorded as 2 (2=21-40%); in [9] it was 0. Further, the “percentage damage caused to the plant, AMARE” value in assay [3] and in [11] was 1 (1=1-20%) in each case. Moreover, the “percentage damage caused to the plant, ECHCG” value is given as 0 in assay [4] and 2 (2=21-40%) in [12]. Further, the “percentage damage caused to the plant, ZEAMX” value in assay [5] and in assay [7] was 0 throughout. In addition, the “percentage damage caused to the plant, SEFTA” value in assay [6] and in assay [8] was 0 throughout.

Turning to `Cc1cc(-c2ccc(Cl)c(Cl)c2)c(C(=O)O)c(=O)n1Cc1ccc(F)cc1F` [Compound 31, 4-(3,4-dichlorophenyl)-1-[(2,4-difluorophenyl)methyl]-6-methyl-2-oxo-pyridine-3-carboxylic acid], the “percentage damage caused to the plant, AMAPA” value in [1] and in assay [10] was 1 (1=1-20%) in each case. The “percentage damage caused to the plant, IPOHE” value in assay [2] and in assay [9] was 0 throughout. For the same molecule, the “percentage damage caused to the plant, AMARE” value in assay [3] and in assay [11] was 1 (1=1-20%) throughout. Also, the “percentage damage caused to the plant, ECHCG” value in assay [4] is given as 1 (1=1-20%); in assay [12] it was 0. Also, the “percentage damage caused to the plant, ZEAMX” value in assay [5] and in assay [7] was 0 in each case. Also, the “percentage damage caused to the plant, SEFTA” value is 0 in [6] and 1 (1=1-20%) in assay [8].

In the case of `Cc1c(Cl)c(-c2ccc(Cl)c(Cl)c2)c(C(=O)O)c(=O)n1-c1ccc(Cl)cc1` [Compound 3, 5-chloro-1-(4-chlorophenyl)-4-(3,4-dichlorophenyl)-6-methyl-2-oxo-pyridine-3-carboxylic acid], the “percentage damage caused to the plant, AMAPA” value in assay [1] and in assay [10] was 4 (4=61-80%) throughout. Also, the “percentage damage caused to the plant, IPOHE” value in assay [2] was 2 (2=21-40%); in assay [9] it was 0. Moreover, the “percentage damage caused to the plant, AMARE” value is given as 4 (4=61-80%) in assay [3] and 2 (2=21-40%) in [11]. In addition, the “percentage damage caused to the plant, ECHCG” value is given as 0 in assay [4] and 1 (1=1-20%) in assay [12]. In addition, the entries for the “percentage damage caused to the plant, ZEAMX” value in assay [5] and in [7] were 1 (1=1-20%) and 0, respectively. Further, the “percentage damage caused to the plant, SEFTA” value is 1 (1=1-20%) in [6] and 2 (2=21-40%) in assay [8].

In the case of `Cc1c(C2CC2)c(-c2ccc(Cl)c(Cl)c2)c(C(=O)O)c(=O)n1-c1ccc(F)cc1F` [Compound 37, 5-cyclopropyl-4-(3,4-dichlorophenyl)-1-(2,4-difluorophenyl)-6-methyl-2-oxo-pyridine-3-carboxylic acid], the “percentage damage caused to the plant, AMAPA” value in assay [1] and in assay [10] was 4 (4=61-80%) each time. Also, the “percentage damage caused to the plant, IPOHE” value in assay [2] is 2 (2=21-40%); in [9] it was 1 (1=1-20%). The “percentage damage caused to the plant, AMARE” value in assay [3] and in [11] was 3 (3=41-60%) throughout. Further, the results for the “percentage damage caused to the plant, ECHCG” value in assay [4] and in [12] were 1 (1=1-20%) and 2 (2=21-40%), respectively. In addition, the “percentage damage caused to the plant, ZEAMX” value in assay [5] and in assay [7] was 1 (1=1-20%) in each case. For the same molecule, the “percentage damage caused to the plant, SEFTA” value in assay [6] and in [8] was 1 (1=1-20%) each time.

Take `C=Cc1c(-c2ccc(Cl)c(Cl)c2)c(C(=O)O)c(=O)n(-c2ccc(Cl)cc2F)c1C` [Compound 32, 1-(4-chloro-2-fluoro-phenyl)-4-(3,4-dichlorophenyl)-6-methyl-2-oxo-5-vinyl-pyridine-3-carboxylic acid]: the “percentage damage caused to the plant, AMAPA” value in assay [1] and in assay [10] was 4 (4=61-80%) each time. Further, the entries for the “percentage damage caused to the plant, IPOHE” value in assay [2] and in assay [9] were 2 (2=21-40%) and 1 (1=1-20%), respectively. Besides, the “percentage damage caused to the plant, AMARE” value in [3] and in assay [11] was 3 (3=41-60%) each time. The “percentage damage caused to the plant, ECHCG” value in [4] is recorded as 1 (1=1-20%); in [12], 2 (2=21-40%). The “percentage damage caused to the plant, ZEAMX” value in assay [5] and in [7] was 1 (1=1-20%) throughout. Also, the “percentage damage caused to the plant, SEFTA” value in assay [6] and in [8] was 1 (1=1-20%) in each case.
